Patent US7906122B2 (priority 2003, dated 2011)

System: the 3 viral strains (pooled HN)
Parameters: species or system BALB/c mice
Conditions: mouse, in vivo

N-palmitoyl D-erythro sphingosyl carbamoyl-spermine [CCS]
immunogenicity of CCS alone compared to CCS/Chol as the vaccine carrier: no difference in immunogenicity
